The record followed here is ChEMBL document CHEMBL1671707, “Mycobacterium tuberculosis dihydrofolate reductase is not a target relevant to the antitubercular activity of isoniazid” (Antimicrob Agents Chemother, 2010).

Values after ≈ are worked out from the molar mass of the structure shown. Active and inactive are the calls of the source. No cut-off for these calls is given here.

Assay [1] relates to Mycolicibacterium smegmatis. The assay is described as follows: Antimicrobial activity against Mycobacterium smegmatis MC2 4517 by broth microdilution method. Type of assay: functional. (In general: Dilution methods test growth across graded concentrations, often in twofold steps.)
Assay [2] has as its system Mycolicibacterium smegmatis. Briefly: Ratio of MIC for Mycobacterium smegmatis overexpressing dfrA gene to MIC for wild-type Mycobacterium smegmatis. The assay is classed as functional.
The test system of assay [3] is Mycolicibacterium smegmatis. The assay is described as follows: Antimicrobial activity against Mycobacterium smegmatis MC2 5072 overexpressing dhfr gene assessed as growth inhibition at 10 ug/ml. The assay is classed as functional, organism-based.
Assay [4] relates to Mycolicibacterium smegmatis. Briefly: Antimicrobial activity against Mycobacterium smegmatis MC2 5071 overexpressing InhA gene assessed as growth inhibition at 10 ug/ml. The assay is classed as functional, organism-based.
The subject of assay [5] is Mycolicibacterium smegmatis. The assay is described as follows: Antimicrobial activity against Mycobacterium smegmatis MC2 5072 overexpressing dhfr gene assessed as growth inhibition at 120 ug/ml. The assay is classed as functional, organism-based.
Assay [6] has as its system Mycolicibacterium smegmatis. The assay is described as follows: Antimicrobial activity against Mycobacterium smegmatis MC2 5071 overexpressing InhA gene assessed as growth inhibition at 120 ug/ml. The assay is classed as functional, organism-based.
Assay [7] relates to Mycolicibacterium smegmatis. The assay is described as follows: Antimicrobial activity against Mycobacterium smegmatis MC2 5069 assessed as growth inhibition at 50 ug/ml. Type of assay: functional, organism-based.
For assay [8], the system named is Mycolicibacterium smegmatis. The assay is described as follows: Antimicrobial activity against Mycobacterium smegmatis MC2 5069 assessed as growth inhibition at 150 ug/ml. The assay is classed as functional, organism-based.
For assay [9], the system named is Mycolicibacterium smegmatis. Briefly: Antimicrobial activity against Mycobacterium smegmatis MC2 5071 overexpressing InhA gene assessed as growth inhibition at 50 ug/ml. The assay is classed as functional, organism-based.
Assay [10] has as its system Mycolicibacterium smegmatis. Briefly: Antimicrobial activity against Mycobacterium smegmatis MC2 5071 overexpressing InhA gene assessed as growth inhibition at 150 ug/ml. The assay is classed as functional, organism-based.
Assay [11] has as its system Mycobacterium tuberculosis. Briefly: Antimicrobial activity against wild-type Mycobacterium tuberculosis H37Rv by MTT assay. Type of assay: functional. Background: Formazan colour is commonly taken as a measure of viable cells.
In assay [12] the target is T1, Dihydrofolate reductase (Mycobacterium tuberculosis, UniProt P9WNX1).
T1 sequence (P9WNX1 whole entry): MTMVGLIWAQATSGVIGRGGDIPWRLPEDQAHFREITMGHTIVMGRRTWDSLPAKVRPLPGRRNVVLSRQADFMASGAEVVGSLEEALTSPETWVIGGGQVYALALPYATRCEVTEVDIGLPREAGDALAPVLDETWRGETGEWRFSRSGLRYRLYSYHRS
The assay is described as follows: Inhibition of Mycobacterium tuberculosis dihydrofolate reductase.

Assay [13] deals with Escherichia coli. Briefly: Antimicrobial activity against Escherichia coli expressing katG and dfrA gene. The assay is classed as functional, organism-based.

`CCc1cc(C(N)=S)ccn1` [ETHIONAMIDE]: in assay [1], 9.4 µg/mL (≈ 56.5 µM) was the least that counted as inhibitory (MIC).
Consider `NNC(=O)c1ccncc1` [ISONIAZID], for which the MIC in assay [1] is 4.7 µg/mL (≈ 34.3 µM); in assay [11] it was 0.06 µg/mL (≈ 0.438 µM). Also, the Ratio in assay [2] was determined as 2. Further, the outcome in assay [3], in assay [5], in assay [7], in assay [8], in assay [9] and in assay [10] was Active. The outcome in assay [4], in assay [6] and in assay [13] was inactive. Besides, in assay [12], the Ki turned out to be 1 nM.

The term MIC denotes the least concentration at which growth counts as inhibited. As usually defined, the Ki is the equilibrium dissociation constant of an inhibitor or competing ligand from its target. Low values mean higher affinity, high ones lower affinity.
